Here are results for one compound from patent publication US10016383B2, “Inhibitors of metallo-β-lactamase-enzymes” (McMaster University, priority 2013, dated 2018).

The test system of assay [1] is K. pneumoniae N11-2218. Kind of assay: Microdilution checkerboard / MIC. It counts as cell-based, Klebsiella pneumoniae. The following applies: checkerboard MIC, NDM-1 expressing CRE. The method, then: FIC values were determined by standard methods^27 setting up checkerboards with 8 concentrations of each meropenem and AM-A in serial ½ dilutions. Experiments were done in duplicate and the mean used for calculation. The MIC for each compound was the lowest concentration of compound showing no growth. The FIC for each compound was calculated as the concentration of the compound in the presence of co-compound for a well showing no growth, divided by the MIC for that compound. The FIC index is the sum of the two FICs.

Assay [2] has as its target T1, NDM-1 (Klebsiella pneumoniae, UniProt C7C422). Kind of assay: Inactivation kinetics. Type of assay: biochemical. Also noted: All β-lactamase overexpression constructs were generated without the leader peptide in a pET-28b plasmid containing a N-terminal His Tag; His tag (N, cleaved yes); SUMO (implied by the use of SUMO protease) (N, cleaved yes); made in house; host or cells: E. coli BL21(DE3). The method, then: NDM-1 (50 nM) was added to 20 μM nitrocefin containing AM-A in serial ½ dilutions from 8 μM. The assay was performed in 50 mM HEPES pH 7.5, 200 μL final volume. The assay was read in 96-well microplate format at 490 nm using a Spectramax reader (Molecular Devices) for 10 minutes at 37° C. VIM-2 (10 nM) was added to 20 μM nitrocefin containing AM-A in serial ½ dilutions from 16 μM. The assay was performed in 50 mM HEPES pH 7.5, 200 μL final volume. The assay was read in 96-well microplate format at 490 nm using a Spectramax reader (Molecular Devices) for 10 minutes at 37° C. as reported previously. For all assays experiments the offset between reaction initiation and the first read was ˜6s.
Rate constants characterizing the inactivation of enzyme were calculated based on the dependence of the pseudo-first order rate constant, ki, upon AM-A concentration according to the following model:
[formula] where E•Zn, A, E•Zn•A, and Zn•A are the active metalloenzyme, AM-A, the ternary metalloenzyme-AM-A complex, and AM-A-metal complex, respectively. Ki represents the dissociation constant of the ternary complex and k+2 is the rate constant for dissociation of ternary complex into inactivated enzyme (Einact) and AM-A-Zn complex. […]
[formula] […] The individual values of Ki and k+2 were determined by fitting the value of ki to equation 2 as described previously^25: […]

Assay [3] concerns K. pneumoniae N11-2218. Nature of the assay: Mouse systemic infection, organ bacterial load. Type of assay: in vivo, CD1 mice. From the text:
All animals were housed in specific pathogen-free units in the Central Animal Facility at McMaster University. All experimental protocols were approved by, and performed in accordance with the McMaster Animal Research Ethics Board. Female CD1 mice were purchased from Charles River.
Mice were infected intraperitoneally (ip) with a dose of 2×10^6 colony forming units (cfu) of Klebsiella pneumoniae N11-2218 for all organ bacterial load experiments, or with a dose of 5×10^7cfu for all survival experiments. For all organ bacterial load experiments, mice were euthanized 48 hours post infection, and spleen and liver were harvested. Organs were placed into 1 mL sterile PBS on ice, and then homogenized (Mixer Mill 400; Retsch). Organ homogenates were then serially diluted in PBS, and plated on Brilliant Green agar (Oxoid) for cfu enumeration. For survival curves, mice were monitored for endpoint. For all experiments, mice were treated 30 minutes post infection with a specified subcutaneous dose of either PBS, meropenem, AM-A inhibitor, or a combination of both antibiotic and inhibitor.

Assay [4] addresses T1, NDM-1. Kind of assay: Zn2+ restoration assay. It counts as biochemical. The arrangement: All β-lactamase overexpression constructs were generated without the leader peptide in a pET-28b plasmid containing a N-terminal His Tag; His tag (N, cleaved yes); SUMO (implied by the use of SUMO protease) (N, cleaved yes); made in house; host or cells: E. coli BL21(DE3). To be noted: post-inactivation by AM-A. Here is the method: NDM-1 (5 nM) supplemented with […] ZnSO4 was incubated with 20 μM AM-A for 15 minutes at 30° C. Nitrocefin (30 μM) and ZnSO4 from 500 nM-40 μM were added to a final volume of 100 μL and absorbance at 490 nm was monitored using a Spectramax reader (Molecular Devices) for 30 minutes at 30° C. Percent residual activity was calculated from no AM-A control. Slightly negative percent residual activity was reported as 0.

Assay [5] deals with SPM-1-expressing isolates. Kind of assay: Clinical isolate screening with meropenem. It counts as cell-based, Enterobacteriaceae, Acinetobacter spp. and Pseudomonas spp. To be noted: meropenem 2 μg/ml, AM-A 8 μg/ml. Here is the method: (§1) Various concentrations of AM-A were chosen in combination with 2 mg/L of meropenem which is the EUCAST breakpoint for resistance^28. Synergistic properties of the two compounds were examined in a micro-titre tray using BHI as the growth medium (Oxford Science Park, England) and an inoculum of 0.5 MacFarland. All plates contained the control strains Escherichia coli ATCC 25922 and Pseudomonas aeruginosa ATCC 27853. Overall, 226 non-clonal clinical isolates (Enterobacteriaceae, P. aeruginosa and Acinetobacter spp.) were challenged containing one of the following MBLs: SPM-1 (n=17), AIM-1 (n=8), NDM-1 (n=67), VIM-type (n=114) or IMP-type (n=20). […] Plates were incubated at 37° C. and read after 18 hrs.

A further assay has as its system IMP-expressing isolates. Kind of assay: Clinical isolate screening with meropenem. The following applies: meropenem 2 μg/ml, AM-A 8 μg/ml. Type of assay: cell-based, Enterobacteriaceae, Acinetobacter spp. and Pseudomonas spp. The method, then: as §1
For the next assay, the system named is VIM positive isolates. Nature of the assay: Clinical isolate screening with meropenem. It counts as cell-based, Enterobacteriaceae, Acinetobacter spp. and Pseudomonas spp. To be noted: AM-A 8 μg/ml, meropenem 2 μg/ml. Here is the method:
as §1

For another assay, the system named is NDM positives isolates. Nature of the assay: Clinical isolate screening with meropenem. It counts as cell-based, Enterobacteriaceae, Acinetobacter spp. and Pseudomonas spp. To be noted: AM-A 8 μg/ml, meropenem 2 μg/ml. The method, then:
as §1

The subject of another assay is AIM-expressing isolates. Nature of the assay: Clinical isolate screening with meropenem. The following applies: meropenem 2 μg/ml, AM-A 8 μg/ml. Type of assay: cell-based, Enterobacteriaceae, Acinetobacter spp. and Pseudomonas spp. Here is the method:
as §1

“Also recorded” adds a separate entry of the source.

T1 sequence (C7C422 29-270 limits assumed): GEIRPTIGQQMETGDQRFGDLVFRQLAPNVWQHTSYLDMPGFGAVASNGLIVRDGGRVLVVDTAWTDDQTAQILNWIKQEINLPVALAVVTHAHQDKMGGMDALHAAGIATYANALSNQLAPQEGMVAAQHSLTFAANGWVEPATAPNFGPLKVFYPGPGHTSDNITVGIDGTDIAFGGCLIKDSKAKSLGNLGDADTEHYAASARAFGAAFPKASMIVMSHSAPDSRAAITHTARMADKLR

Regarding `N[C@H](CN[C@H](CN[C@@H](CC(=O)O)C(=O)O)C(=O)O)C(=O)O` [AM-A, aspergillomarasmine A], the “synergy between meropenem and AM-A” value with K. pneumoniae N11-2218 [1] is “synergy”. The same compound registered a Ki at NDM-1 [2] of 11 nM. Further, at NDM-1 [2] (time-dependent inactivation), the “k+2 (inactivation rate constant)” value stood at 0.0062 s⁻¹. For the same compound, in the assay with K. pneumoniae N11-2218 [3] (AM-A alone), the “bacterial load in tissues” value is listed as “unaffected”. Also, the “bacterial load in the spleen” value with K. pneumoniae N11-2218 [3] (combination meropenem 10 mg/kg + AM-A 10 mg/kg, single dose, 48 hours post infection) is on record as “significantly reduced”. Besides, the “NDM-1 activity after addition of excess ZnSO4” value on NDM-1 [4] is given as “enzymatic activity could be restored; also recorded: restores activity”. For the same compound, the “potentiation of meropenem / susceptibility to combination” value (in assay [5]; in the assay on IMP-expressing isolates; in the assay with AIM-expressing isolates) was “very little potentiation; also recorded: remained resistant” each time. Further, the figures for the “isolates with meropenem sensitivity restored” value with VIM positive isolates and in the assay with NDM positives isolates were 90% and 88%, respectively. Further, the “susceptibility to meropenem/AM-A combination” value with VIM positive isolates and in the assay with NDM positives isolates was “highly susceptible” in each case.
